# Experimental data reported in PubChem BioAssay (NCI).
# Values joined by “and” are separate entries in the source; they are usually repeats but may differ in a detail not shown here. Identical values can stand only once.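 Cultured in 96-well plates, cells were exposed to test compound for 48 hours across five concentrations. Abbreviation: GI50, concentration required for 50% inhibition of growth. TGI: total growth inhibition.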
# Experiments:
# Experiment in all cases: inhibition of tumour cell growth, NCI panel, 48 h
# DU-145 prostate = tested on: DU-145 prostate
# MDA-MB-231 breast = tested on: MDA-MB-231 breast
# MDA-MB-435 = tested on: MDA-MB-435
# NCI/ADR-RES ovarian = tested on: NCI/ADR-RES ovarian
# PC-3 prostate = tested on: PC-3 prostate
# T-47D breast = tested on: T-47D breast
Compound,GI50 (DU-145 prostate),TGI (DU-145 prostate),GI50 (MDA-MB-231 breast),TGI (MDA-MB-231 breast),GI50 (MDA-MB-435),TGI (MDA-MB-435),GI50 (NCI/ADR-RES ovarian),TGI (NCI/ADR-RES ovarian),GI50 (PC-3 prostate),TGI (PC-3 prostate),GI50 (T-47D breast) [µM],TGI (T-47D breast)
Nc1[nH]nc2nc(-c3cccs3)cc(C(F)(F)F)c12,> 25 µM,> 25 µM,> 25 µM,> 25 µM,> 25 µM,> 25 µM,> 25 µM,> 25 µM,> 25 µM,> 25 µM,> 25,> 25 µM
O=C(Nc1ccc(Cl)cc1)Nc1ccc(Nc2nncc3ccccc23)cc1,3.17 µM,26.9 µM,3.4 µM,15.9 µM,2.14 µM,9.42 µM,2.79 µM,26.3 µM,2.32 µM,11 µM,1.03,5.35 µM
COc1cc(C(=O)NC2CCN(C)CC2)c(F)cc1Nc1ncc2c(n1)N(C1CCCC1)CC(F)(F)C(=O)N2C,0.0179 µM,11.2 µM,–,–,–,–,< 0.0329 µM,13.6 µM,< 0.0201 µM,18.3 µM,< 0.0315,13 µM
O=C1c2c(O)cccc2C(C2OC(CO)C(O)C(O)C2O)c2cc(CO)cc(O)c21 (centres undefined),–,> 100 µM,–,> 100 µM,–,> 100 µM,–,> 100 µM,–,> 100 µM,–,> 100 µM
CCSCCCN(CCCSCC)CCCSCC,–,> 100 µM,–,> 100 µM,–,> 100 µM,–,> 100 µM,–,> 100 µM,–,> 100 µM
CCCOC(=O)N1CCN(/[N+]([O-])=N/Oc2ccc([N+](=O)[O-])cc2[N+](=O)[O-])CC1,1.81 µM,3.53 µM,2.29 µM,4.83 µM,0.366 µM,12.2 µM,3.31 µM,> 100 µM,4.14 µM,15.1 µM,–,–
CCOc1cc2ncc(C#N)c(Nc3ccc(OCc4ccccn4)c(Cl)c3)c2cc1NC(=O)/C=C/CN(C)C,0.113 µM and 0.181 µM,1.93 µM and 4.73 µM,1.35 µM and 1.48 µM,2.99 µM and 5.63 µM,0.902 µM and 0.77 µM,2.52 µM and 5.37 µM,1.17 µM and 1.2 µM,4.49 µM and > 8.87 µM,1.93 µM and 1.31 µM,8.36 µM and > 9.32 µM,–,29.7 µM and > 2.61 µM
COc1ccc2c(c1)C(=O)c1c-2c(N(C)C)nc2ccccc12,> 100 µM,> 100 µM,77 µM,> 100 µM,–,–,> 100 µM,> 100 µM,> 100 µM,> 100 µM,> 100,> 100 µM
C/C=C(\C)C(=O)O[C@H]1C=CC(=O)O[C@@H]1CC[C@H](O)[C@H](C)O,34 µM,> 100 µM,52.2 µM,> 100 µM,34.6 µM,> 100 µM,> 100 µM,> 100 µM,> 86.2 µM,> 100 µM,38.6,> 87.1 µM
O=[N+]([O-])c1cccc([As]=[As]c2cccc([N+](=O)[O-])c2)c1 (centres undefined),0.163 µM,0.309 µM,0.0776 µM,0.212 µM,0.122 µM,0.271 µM,0.182 µM,0.447 µM,0.147 µM,0.297 µM,0.0358,0.164 µM
C/C=C(/COC(C)=O)C(=O)OC1C=C(C=O)C(C)(C)C=C1C (centres undefined),–,> 100 µM,–,> 100 µM,–,> 100 µM,–,> 100 µM,–,> 100 µM,–,> 100 µM
COc1cccc(-n2ncc3c(N/N=C/c4ccncc4)ncnc32)c1,4.55 µM,> 25 µM,3.51 µM,> 25 µM,1.46 µM,> 25 µM,> 25 µM,> 25 µM,> 17.1 µM,> 25 µM,> 25,> 25 µM
Nc1nc(Nc2ccc(C3CCC(N4CCOCC4)CC3)cc2)nn1-c1ccccn1 (centres undefined),6.4 µM,> 100 µM,5.34 µM,> 100 µM,3.57 µM,> 100 µM,9.33 µM,> 100 µM,5.76 µM,> 100 µM,> 31.5,> 100 µM
NC(=S)N/N=C/c1ncccc1N,1.04 µM,–,3.79 µM,> 100 µM,5.17 µM,> 100 µM,1.66 µM,14.9 µM and 8.77 µM,6.5 µM,> 100 µM,1.92,23.2 µM and > 10 µM
CC#CC(=O)SCCNC(=O)CC,–,> 10 µM,–,> 10 µM,–,> 10 µM,–,> 10 µM,–,> 10 µM,–,> 10 µM
COc1ccc(OC)c(-c2c(C#N)c(N)nc(N3CCOCC3)c2C#N)c1,> 100 µM,> 100 µM,40.3 µM,> 100 µM,> 100 µM,> 100 µM,> 100 µM,> 100 µM,95.4 µM,> 100 µM,45.1,> 100 µM
O=C(/C=C/c1ccc([N+](=O)[O-])cc1)c1ccc2c3c(cccc13)CC2,4.23 µM,> 40.9 µM,> 52.8 µM,> 100 µM,15.8 µM,> 63.4 µM,20.8 µM,> 100 µM,4.72 µM,> 100 µM,1.57,> 24.8 µM
COc1ccc(C(=O)c2cc3c(N)c(C(=O)Nc4cccc5ccccc45)sc3nc2C)cc1,0.19 µM,> 50 µM,0.271 µM,> 50 µM,–,–,0.181 µM,> 50 µM,0.212 µM,> 50 µM,0.355,> 50 µM
Cc1ccc(S(=O)(=O)Nc2cccc3[nH]c(C(F)(F)F)nc23)cc1,1.2 µM,> 39.9 µM,1.61 µM,22.5 µM,0.204 µM,> 100 µM,0.412 µM,42.9 µM,0.56 µM,> 68.8 µM,0.492,57 µM
CCc1ccc(NC(=O)COC(=O)c2cc([N+](=O)[O-])ccc2Sc2nnnn2C)cc1,4.9 µM,28.2 µM,23.6 µM,> 100 µM,3.42 µM,21.4 µM,5.66 µM,47.2 µM,15.2 µM,84.5 µM,18.5,82.4 µM
